Data published in patent US20250034125A1, “COMPOUNDS AND USES THEREOF” (JANSSEN PHARMACEUTICA NV, priority 2019, published 2025).
Where two headings read alike, the source gives them in different places.

Tests used:
SCD1 = target: T1, SCD1 (Homo sapiens, UniProt O00767); assay: Growth inhibition of yeast (ole1Δ) expressing human SCD1 as the sole desaturase; type: cell-based; conditions: read-out: SCD1 IC50
T1 construct: host or cells: Saccharomyces cerevisiae ole1Δ strain (W303 pdr1Δ pdr3Δ background), plasmid pRS316, TDH3 promoter
T1 sequence (O00767 1-359): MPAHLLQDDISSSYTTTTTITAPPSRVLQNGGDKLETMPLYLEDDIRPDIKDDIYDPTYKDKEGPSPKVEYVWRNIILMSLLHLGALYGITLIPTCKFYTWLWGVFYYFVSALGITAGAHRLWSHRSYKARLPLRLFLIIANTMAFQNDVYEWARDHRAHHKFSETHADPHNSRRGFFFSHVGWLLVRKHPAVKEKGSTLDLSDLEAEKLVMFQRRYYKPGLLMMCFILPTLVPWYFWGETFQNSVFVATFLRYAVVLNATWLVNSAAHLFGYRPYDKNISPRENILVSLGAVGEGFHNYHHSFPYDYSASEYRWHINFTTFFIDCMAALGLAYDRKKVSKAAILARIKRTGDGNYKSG

SCD5 = target: T2, SCD5 (Homo sapiens, UniProt Q86SK9); assay: Growth inhibition of yeast (ole1Δ) expressing human SCD5 as the sole desaturase; type: cell-based; conditions: read-out: SCD5 IC50
T2 construct: host or cells: Saccharomyces cerevisiae ole1Δ strain (W303 pdr1Δ pdr3Δ background), plasmid pRS316, TDH3 promoter
T2 sequence (Q86SK9 1-330): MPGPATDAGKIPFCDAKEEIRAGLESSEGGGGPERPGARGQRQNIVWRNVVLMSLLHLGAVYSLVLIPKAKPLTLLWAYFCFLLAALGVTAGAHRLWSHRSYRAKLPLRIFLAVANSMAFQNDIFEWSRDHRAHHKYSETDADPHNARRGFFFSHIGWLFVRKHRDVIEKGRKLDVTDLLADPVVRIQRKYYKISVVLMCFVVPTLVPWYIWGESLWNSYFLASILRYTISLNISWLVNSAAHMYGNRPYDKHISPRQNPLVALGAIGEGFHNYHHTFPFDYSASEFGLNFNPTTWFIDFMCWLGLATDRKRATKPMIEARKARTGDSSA

[1] = yeast strain with SCD1 plasmid, OD600 growth read at 40 h
[2] = yeast strain with SCD5 plasmid, OD600 growth read at 40 h

IC50 (SCD1; [1])	IC50 (SCD5; [2])	IC50 (SCD1)	IC50 (SCD5)	Compound
> 45000 nM	1930 nM			Cn1cc(-c2nnc(N3CCC(Cc4cccc(F)c4)CC3)o2)ccc1=O [Compound 18, 5-(5-(4-(3-fluorobenzyl)piperidin-1-yl)-1,3,4-oxadiazol-2-yl)-1-methylpyridin-2(1H)-one]
25500 nM	5350 nM			O=C(Cc1ccc(=O)[nH]n1)N1CCC(Oc2cccc(Cl)c2)CC1 [Compound 36, 6-(2-(4-(3-chlorophenoxy)piperidin-1-yl)-2-oxoethyl)pyridazin-3(2H)-one]
12700 nM	4360 nM			Cn1nc(CC(=O)N2CCC(Cc3cccc(Cl)c3)CC2)ccc1=O [Compound 37, 6-(2-(4-(3-chlorobenzyl)piperidin-1-yl)-2-oxoethyl)-2-methylpyridazin-3(2H)-one]
> 45000 nM	10400 nM			Cn1nc(NC(=O)N2CCC(Cc3ccc(F)c(C#N)c3)CC2)ccc1=O [Compound 58, 4-(3-cyano-4-fluorobenzyl)-N-(1-methyl-6-oxo-1,6-dihydropyridazin-3-yl)piperidine-1-carboxamide]
440 nM	40 nM			Cn1nc(NC(=O)N2CCC(Cc3ccc(F)c(Cl)c3)CC2)ccc1=O [Compound 54, 4-(3-chloro-4-fluorobenzyl)-N-(1-methyl-6-oxo-1,6-dihydropyridazin-3-yl)piperidine-1-carboxamide]
40 nM	40 nM			Cc1cc(NC(=O)N2CCC(Oc3cc(F)cc(F)c3)CC2)nn(C)c1=O [Compound 126]
7200 nM	21000 nM			Cn1nc(NC(=O)N2CCC[C@@H](c3cc(F)cc(F)c3)CC2)ccc1=O [Compound 32]
50 nM	20 nM			Cn1nc(NC(=O)N2CCC(Oc3cc(F)ccc3Cl)CC2)ccc1=O [Compound 82, 4-(2-chloro-5-fluorophenoxy)-N-(1-methyl-6-oxo-1,6-dihydropyridazin-3-yl)piperidine-1-carboxamide]
26300 nM	70 nM			Cn1nc(-c2nnc(N3CCC(Cc4cc(F)cc(F)c4)CC3)o2)ccc1=O [Compound 118, 6-(5-(4-(3,5-difluorobenzyl)piperidin-1-yl)-1,3,4-oxadiazol-2-yl)-2-methylpyridazin-3(2H)-one]
> 45000 nM	> 45000 nM			Cn1nc(NC(=O)N2CCC=C(c3ccc(Cl)cc3)CC2)ccc1=O [Compound 133, 4-(4-chlorophenyl)-N-(1-methyl-6-oxo-1,6-dihydropyridazin-3-yl)-2,3,6,7-tetrahydro-1H-azepine-1-carboxamide]
39000 nM	> 45000 nM			Cn1nc(NC(=O)N2CCC[C@@H](c3ccc(Cl)cc3)CC2)ccc1=O [Compound 31]
14000 nM	3800 nM			O=c1ccc(-c2noc(N3CCC(Cc4ccc(F)c(F)c4)CC3)n2)c[nH]1 [Compound 1]
4150 nM	5680 nM			Cn1nc(NC(=O)N2CCC(Cc3cc(F)cc(F)c3)C2)ccc1=O (stereo not shown) [Compound 26, 3-(3,5-difluorobenzyl)-N-(1-methyl-6-oxo-1,6-dihydropyridazin-3-yl)pyrrolidine-1-carboxamide]
> 45000 nM	> 45000 nM			Cn1nc(NC(=O)N2CCC(Cc3cccc(C#N)c3Cl)CC2)ccc1=O [Compound 56, 4-(2-chloro-3-cyanobenzyl)-N-(1-methyl-6-oxo-1,6-dihydropyridazin-3-yl)piperidine-1-carboxamide]
		2210 nM	1170 nM	Cn1nc(NC(=O)N2CCC(Cc3ccc(F)cc3)CC2)ccc1=O [Compound 44, 4-(4-fluorobenzyl)-N-(1-methyl-6-oxo-1,6-dihydropyridazin-3-yl)piperidine-1-carboxamide]
> 45000 nM	26400 nM			Cn1nc(NC(=O)N2CCC(OCc3cccc(F)c3)CC2)ccc1=O [Compound 96, 4-(3-fluorobenzyloxy)-N-(1-methyl-6-oxo-1,6-dihydropyridazin-3-yl)piperidine-1-carboxamide]
70 nM	30 nM			Cn1nc(NC(=O)N2CCC(Oc3ccc(C(F)(F)F)c(F)c3)CC2)ccc1=O [Compound 88, 4-(3-fluoro-4-(trifluoromethyl)phenoxy)-N-(1-methyl-6-oxo-1,6-dihydropyridazin-3-yl)piperidine-1-carboxamide]
10 nM	10 nM			Cn1nc(NC(=O)N2CCC(Oc3cc(F)ccc3C(F)(F)F)CC2)ccc1=O [Compound 86, 4-(5-fluoro-2-(trifluoromethyl)phenoxy)-N-(1-methyl-6-oxo-1,6-dihydropyridazin-3-yl)piperidine-1-carboxamide]
> 45000 nM	> 45000 nM			Cn1nc(NC(=O)N2CCC(NCc3cc(F)cc(F)c3)CC2)ccc1=O [Compound 104, 4-(3,5-difluorobenzylamino)-N-(1-methyl-6-oxo-1,6-dihydropyridazin-3-yl)piperidine-1-carboxamide]
> 45000 nM	20400 nM			O=C(Cc1ccc(=O)[nH]n1)N1CCC(Cc2cc(F)cc(F)c2)CC1 [Compound 35]
180 nM	10 nM			Cn1nc(-c2nnc(N3CCC(Cc4cc(F)cc(F)c4)CC3)s2)ccc1=O [Compound 121, 6-(5-(4-(3,5-difluorobenzyl)piperidin-1-yl)-1,3,4-thiadiazol-2-yl)-2-methylpyridazin-3(2H)-one]
500 nM	600 nM			Cn1nc(-c2nc(N3CCC(Oc4cccc(F)c4Cl)CC3)no2)ccc1=O [Compound 112, 6-(3-(4-(2-chloro-3-fluorophenoxy)piperidin-1-yl)-1,2,4-oxadiazol-5-yl)-2-methylpyridazin-3(2H)-one]
480 nM	200 nM			Cn1nc(NC(=O)N2CCC(Oc3cc(F)cc(F)c3)CC2)ccc1=O [Compound 79, 4-(3,5-difluorophenoxy)-N-(1-methyl-6-oxo-1,6-dihydropyridazin-3-yl)piperidine-1-carboxamide]
8580 nM	2240 nM			Cn1nc(NC(=O)N2CCC(Cc3ccc(Cl)cc3)CC2)ccc1=O [Compound 43]
> 45000 nM	> 45000 nM			Cn1nc(NC(=O)N2CCC(NCc3ccccc3C(F)(F)F)CC2)ccc1=O [Compound 105, N-(1-methyl-6-oxo-1,6-dihydropyridazin-3-yl)-4-(2-(trifluoromethyl)benzylamino) piperidine-1-carboxamide]
17200 nM	6370 nM			Cn1nc(CC(=O)N2CCC(Cc3cc(F)cc(F)c3)CC2)ccc1=O [Compound 38, 6-(2-(4-(3,5-difluorobenzyl)piperidin-1-yl)-2-oxoethyl)-2-methylpyridazin-3(2H)-one]
	10 nM			Cn1nc(-c2nc(N3CCC(Cc4cccc(F)c4)CC3)no2)ccc1=O [Compound 114, 6-(3-(4-(3-fluorobenzyl)piperidin-1-yl)-1,2,4-oxadiazol-5-yl)-2-methylpyridazin-3(2H)-one]

Compound	IC50 (SCD1; [1])	IC50 (SCD5; [2])	IC50 (SCD1)	IC50 (SCD5)
Cn1nc(NC(=O)N2CCC(Cc3ccc(F)c(F)c3)CC2)ccc1=O [Compound 49, 4-(3,4-difluorobenzyl)-N-(1-methyl-6-oxo-1,6-dihydropyridazin-3-yl)piperidine-1-carboxamide]	8100 nM	430 nM		
Cn1nc(-c2noc(N3CCC(Cc4ccc(F)c(F)c4)CC3)n2)ccc1=O [Compound 123, 6-(5-(4-(3,4-difluorobenzyl)piperidin-1-yl)-1,2,4-oxadiazol-3-yl)-2-methylpyridazin-3(2H)-one]	4900 nM	1400 nM		
Cc1ccccc1OC1CCN(C(=O)Nc2ccc(=O)n(C)n2)CC1 [Compound 72, N-(1-methyl-6-oxo-1,6-dihydropyridazin-3-yl)-4-(o-tolyloxy) piperidine-1-carboxamide]	430 nM	280 nM		
Cn1nc(NC(=O)N2CC(Oc3cc(F)cc(F)c3)C2)ccc1=O [Compound 24, 3-(3,5-difluorophenoxy)-N-(1-methyl-6-oxo-1,6-dihydropyridazin-3-yl)azetidine-1-carboxamide]	1100 nM	2900 nM		
Cn1nc(-c2nc(N3CCC(Cc4cc(Cl)cc(C#N)c4)CC3)no2)ccc1=O [Compound 117, 3-chloro-5-((1-(5-(1-methyl-6-oxo-1,6-dihydropyridazin-3-yl)-1,2,4-oxadiazol-3-yl)piperidin-4-yl)methyl)benzonitrile]	2000 nM	30 nM		
Cn1nc(NC(=O)N2CC[C@@H](Oc3cc(F)cc(F)c3)C2)ccc1=O [Compound 28, (3R)-3-(3,5-difluorophenoxy)-N-(1-methyl-6-oxo-1,6-dihydropyridazin-3-yl)pyrrolidine-1-carboxamide]	8100 nM	> 45000 nM		
Cn1cc(NC(=O)N2CCC(Cc3cc(F)cc(Cl)c3)CC2)ccc1=O [Compound 8, 4-(3-chloro-5-fluorobenzyl)-N-(1-methyl-6-oxo-1,6-dihydropyridin-3-yl)piperidine-1-carboxamide]	2320 nM	830 nM		
